According to paper PMC11045757, “Group 3 medulloblastoma transcriptional networks collapse under domain specific EP300/CBP inhibition” (Nature Communications, 2024):

Tested on: 460 barcoded cancer cell lines
Test: PRISM pooled barcoded cancer cell line growth screen, 10-point dose-response, 5 days, AUC
Type: cell-based
Set-up: scale not given here
Excerpt: Several small molecule inhibitors of distinct protein domains of EP300/CBP are available, though the majority target the histone acetyltransferase domain (HAT) or bromodomain (BRD)[5],[10],[21],[22]. […] We used these tools to investigate the relative contribution of the EP300/CBP BRD or HAT domain to tumor cell growth (Fig. 1a). To do so, we performed 10-point, dose-response growth assays using mixed pools of 460 barcoded cancer cell lines, over five days of treatment in vitro[33],[34]. Growth was measured using an area-under-the-curve (AUC) approach (Supplementary Table 1, Supplementary Fig. 1a). […] Given potential differences in compound penetration and solubility, and to compare the relative cell line and tumor-specific effects of these two compounds in assays performed non-simultaneously, we performed a median normalization of each dataset (Supplementary Table 2).

Compound `CO[C@H]1CC[C@H](n2c([C@@H]3CCCC(=O)N3c3ccc(F)c(F)c3)nc3cc(-c4c(C)noc4C)ccc32)CC1` [CCS1477] has an AUC (HCC1428, Breast Cancer) of 0.8123, an AUC (HCC1438, Lung Cancer) of 0.9027 and an AUC (HCC1806, Breast Cancer) of 0.9831. For the same compound, the AUC (HCC1937, Breast Cancer) was 1, the AUC (HCC2108, Lung Cancer) was 0.7949 and the AUC (HCC4006, Lung Cancer) was 0.9703. It also gave an AUC (HCT116, Colon/Colorectal Cancer) of 0.9792, an AUC (HDMYZ, Lymphoma) of 0.8423 and an AUC (HDQP1, Breast Cancer) of 0.939. It also gave an AUC (HEC1B, Endometrial/Uterine Cancer) of 0.8393, an AUC (HEC6, Endometrial/Uterine Cancer) of 0.9929 and an AUC (HEC50B, Endometrial/Uterine Cancer) of 0.7901. For the same compound, the AUC (HEL9217, AML) was 0.6249, the AUC (HEL, AML) was 0.5914 and the AUC (HEP3B217, Liver Cancer) was 0.9151. It also gave an AUC (HEPG2, Liver Cancer) of 0.7882, an AUC (HEYA8, Ovarian Cancer) of 0.9726 and an AUC (HGC27, Gastric Cancer) of 0.9831. It also gave an AUC (HH, Lymphoma) of 0.8948, an AUC (HOS, Osteosarcoma) of 0.9628 and an AUC (HPBALL, T-acute leukemia) of 0.9516. The AUC (HS294T, Melanoma) was 0.9659, the AUC (HS766T, Pancreatic Cancer) was 0.9722 and the AUC (HSC2, Head and Neck Cancer) was 0.9695. For the same compound, the AUC (HSC3, Head and Neck Cancer) was 0.9769, the AUC (HT29, Colon/Colorectal Cancer) was 0.658 and the AUC (HT115, Colon/Colorectal Cancer) was 0.9413. The AUC (HT144, Melanoma) was 1, the AUC (HT1197, Bladder Cancer) was 0.9485 and the AUC (HT, B-cell Lymphoma) was 0.7078. It also gave an AUC (HUCCT1, Bile Duct Cancer) of 0.9905, an AUC (HUG1N, Gastric Cancer) of 0.95 and an AUC (HUH1, Liver Cancer) of 0.8468. For the same compound, the AUC (HUH7, Liver Cancer) was 1, the AUC (HUH28, Bile Duct Cancer) was 0.9991 and the AUC (HUPT3, Pancreatic Cancer) was 0.8687. It also gave an AUC (HUPT4, Pancreatic Cancer) of 0.7771, an AUC (HUT78, Lymphoma) of 0.9925 and an AUC (IALM, Lung Cancer) of 0.7856. The AUC (IGR37, Melanoma) was 1, the AUC (IGROV1, Ovarian Cancer) was 0.9601 and the AUC (IM95, Gastric Cancer) was 0.8194. The AUC (IPC298, Melanoma) was 0.9388, the AUC (ISHIKAWAHERAKLIO02ER, Endometrial/Uterine Cancer) was 0.9971 and the AUC (ISTMES1, Lung Cancer) was 0.9282. The AUC (J82, Bladder Cancer) was 1, the AUC (JEKO1, Lymphoma) was 0.9796 and the AUC (JHH1, Liver Cancer) was 0.7664. For the same compound, the AUC (JHH4, Liver Cancer) was 0.9641, the AUC (JHH5, Liver Cancer) was 0.6818 and the AUC (JHH7, Liver Cancer) was 0.9818. The AUC (JHOC5, Ovarian Cancer) was 1, the AUC (JHUEM7, Endometrial/Uterine Cancer) was 0.8239 and the AUC (JVM3, B-cell Leukemia) was 0.9481. For the same compound, the AUC (K029AX, Melanoma) was 0.7327, the AUC (KALS1, Glioblastoma) was 0.99 and the AUC (KARPAS620, Myeloma) was 0.9486. The AUC (KATOIII, Gastric Cancer) was 0.9783, the AUC (KCL22, CML) was 0.7293 and the AUC (KD, Rhabdoid) was 0.7052. For the same compound, the AUC (KE37, T-acute leukemia) was 0.8049, the AUC (KE39, Gastric Cancer) was 1 and the AUC (KELLY, Neuroblastoma) was 0.8609. For the same compound, the AUC (KMBC2, Bladder Cancer) was 0.8012, the AUC (KMS11, Myeloma) was 0.8305 and the AUC (KMS12BM, Myeloma) was 0.8083. It also gave an AUC (KMS18, Myeloma) of 0.8881, an AUC (KMS21BM, Myeloma) of 0.9427 and an AUC (KMS28BM, Myeloma) of 0.7058. The AUC (KMS34, Myeloma) was 0.8725, the AUC (KNS42, Glioblastoma) was 0.9251 and the AUC (KNS60, Glioblastoma) was 0.8942. It also gave an AUC (KNS62, Lung Cancer) of 0.9516, an AUC (KP3, Pancreatic Cancer) of 1 and an AUC (KPNYN, Neuroblastoma) of 0.9626. The AUC (KS1, Glioma) was 0.7921, the AUC (KU1919, Bladder Cancer) was 0.7361 and the AUC (KYM1, Rhabdoid) was 0.9475. For the same compound, the AUC (KYSE30, Esophageal Cancer) was 0.989, the AUC (KYSE150, Esophageal Cancer) was 0.988 and the AUC (KYSE410, Esophageal Cancer) was 0.9549. The AUC (KYSE510, Esophageal Cancer) was 0.928, the AUC (KYSE520, Esophageal Cancer) was 0.9953 and the AUC (LAMA84, CML) was 0.8874. For the same compound, the AUC (LC1SQSF, Lung Cancer) was 0.9937, the AUC (LCLC103H, Lung Cancer) was 0.945 and the AUC (LI7, Liver Cancer) was 0.8469. The AUC (LK2, Lung Cancer) was 0.7132, the AUC (LMSU, Gastric Cancer) was 0.9918 and the AUC (LN18, Glioblastoma) was 0.9905. For the same compound, the AUC (LNCAPCLONEFGC, Prostate Cancer) was 0.7183, the AUC (LOUNH91, Lung Cancer) was 1 and the AUC (LOVO, Colon/Colorectal Cancer) was 0.6312. It also gave an AUC (LOXIMVI, Melanoma) of 0.8683, an AUC (LS180, Colon/Colorectal Cancer) of 0.9873 and an AUC (LS411N, Colon/Colorectal Cancer) of 0.9732. The AUC (LUDLU1, Lung Cancer) was 0.9677, the AUC (LXF289, Lung Cancer) was 0.9728 and the AUC (M059K, Glioblastoma) was 0.8113. For the same compound, the AUC (MALME3M, Melanoma) was 0.7988, the AUC (MC116, B-cell Lymphoma) was 0.9377 and the AUC (MCAS, Ovarian Cancer) was 0.9952. For the same compound, the AUC (MCF7, Breast Cancer) was 0.7913, the AUC (MDAMB175VII, Breast Cancer) was 0.9996 and the AUC (MDAMB231, Breast Cancer) was 0.8811. The AUC (MDAMB361, Breast Cancer) was 0.7401, the AUC (MDAMB436, Breast Cancer) was 1 and the AUC (MDAMB453, Breast Cancer) was 0.5759. It also gave an AUC (MDAMB468, Breast Cancer) of 1, an AUC (MDST8, Colon/Colorectal Cancer) of 0.9162 and an AUC (MELHO, Melanoma) of 0.7224. For the same compound, the AUC (MESSA, Uterine Sarcoma) was 0.7646 and the AUC (MFE280, Endometrial/Uterine Cancer) was 0.8205.
